Where “and” joins values, the source holds several entries; their conditions need not be identical. Equal values may be shown once.
System: A875 shp75 cells
Experiment: Wound healing cell motility assay, A875 shp75
Type: cell-based, human
Settings: for Wound area, n1-n3 / Wound area, Mean: 10μM Div17E5; for Wound area, Mean: N=3
Method: For wound healing assay, cells were grown until confluency and subjected to a wound across the cell mono-layer. Cells were then incubated with serum-free media either with DMSO or a small molecule (with or without 5 µM Q_VD_poH) and imaged at specific time-points. Cell migration is reflected as fold change in wound area over time.

With Oc1ccc(-c2cncc(Nc3ccc(Br)c(Cl)c3)n2)cc1 [Div17E5] the “Wound area, n1-n3” value (9 hours) was 0.959 Fold and 0.914 Fold and 0.881 Fold, the “Wound area, Mean” value (9 hours) was 0.918 Fold and the “Wound area, n1-n3” value (12 hours) was 0.961 Fold and 0.889 Fold and 0.887 Fold. The “Wound area, Mean” value (12 hours) was 0.912 Fold, the “Wound area, n1-n3” value (15 hours) was 0.930 Fold and 0.849 Fold and 0.852 Fold and the “Wound area, Mean” value (15 hours) was 0.877 Fold. The “Wound area, n1-n3” value (18 hours) was 0.858 Fold and 0.787 Fold and 0.795 Fold, the “Wound area, Mean” value (18 hours) was 0.813 Fold and the “Wound area, n1-n3” value (21 hours) was 0.855 Fold and 0.772 Fold and 0.767 Fold. For the same compound, the “Wound area, Mean” value (21 hours) was 0.798 Fold, the “Wound area, n1-n3” value (24 hours) was 0.867 Fold and 0.765 Fold and 0.792 Fold and the “Wound area, Mean” value (24 hours) was 0.808 Fold. The “Wound area (Fold)” value (A875 shp75, 1uM, 0 h, Mean) was 1.000 Fold, the “Wound area (Fold)” value (A875 shp75, 1uM, 0 h, n1) was 0.980 Fold and the “Wound area (Fold)” value (A875 shp75, 1uM, 0 h, n2) was 1.053 Fold. For the same compound, the “Wound area (Fold)” value (A875 shp75, 1uM, 0 h, n3) was 0.966 Fold, the “Wound area (Fold)” value (A875 shp75, 1uM, 3 h, Mean) was 0.957 Fold and the “Wound area (Fold)” value (A875 shp75, 1uM, 3 h, n1) was 0.947 Fold. The “Wound area (Fold)” value (A875 shp75, 1uM, 3 h, n2) was 0.963 Fold, the “Wound area (Fold)” value (A875 shp75, 1uM, 3 h, n3) was 0.960 Fold and the “Wound area (Fold)” value (A875 shp75, 1uM, 6 h, Mean) was 0.921 Fold. For the same compound, the “Wound area (Fold)” value (A875 shp75, 1uM, 6 h, n1) was 0.914 Fold, the “Wound area (Fold)” value (A875 shp75, 1uM, 6 h, n2) was 0.924 Fold and the “Wound area (Fold)” value (A875 shp75, 1uM, 6 h, n3) was 0.923 Fold. For the same compound, the “Wound area (Fold)” value (A875 shp75, 1uM, 9 h, Mean) was 0.898 Fold, the “Wound area (Fold)” value (A875 shp75, 1uM, 9 h, n1) was 0.889 Fold and the “Wound area (Fold)” value (A875 shp75, 1uM, 9 h, n2) was 0.905 Fold. The “Wound area (Fold)” value (A875 shp75, 1uM, 9 h, n3) was 0.901 Fold, the “Wound area (Fold)” value (A875 shp75, 1uM, 12 h, Mean) was 0.873 Fold and the “Wound area (Fold)” value (A875 shp75, 1uM, 12 h, n1) was 0.869 Fold. The “Wound area (Fold)” value (A875 shp75, 1uM, 12 h, n2) was 0.870 Fold, the “Wound area (Fold)” value (A875 shp75, 1uM, 12 h, n3) was 0.881 Fold and the “Wound area (Fold)” value (A875 shp75, 1uM, 15 h, Mean) was 0.847 Fold. For the same compound, the “Wound area (Fold)” value (A875 shp75, 1uM, 15 h, n1) was 0.839 Fold, the “Wound area (Fold)” value (A875 shp75, 1uM, 15 h, n2) was 0.841 Fold and the “Wound area (Fold)” value (A875 shp75, 1uM, 15 h, n3) was 0.861 Fold. For the same compound, the “Wound area (Fold)” value (A875 shp75, 1uM, 18 h, Mean) was 0.821 Fold, the “Wound area (Fold)” value (A875 shp75, 1uM, 18 h, n1) was 0.821 Fold and the “Wound area (Fold)” value (A875 shp75, 1uM, 18 h, n2) was 0.823 Fold. The “Wound area (Fold)” value (A875 shp75, 1uM, 18 h, n3) was 0.820 Fold, the “Wound area (Fold)” value (A875 shp75, 1uM, 21 h, Mean) was 0.792 Fold and the “Wound area (Fold)” value (A875 shp75, 1uM, 21 h, n1) was 0.780 Fold. The “Wound area (Fold)” value (A875 shp75, 1uM, 21 h, n2) was 0.797 Fold, the “Wound area (Fold)” value (A875 shp75, 1uM, 21 h, n3) was 0.800 Fold and the “Wound area (Fold)” value (A875 shp75, 1uM, 24 h, Mean) was 0.773 Fold. For the same compound, the “Wound area (Fold)” value (A875 shp75, 1uM, 24 h, n1) was 0.775 Fold, the “Wound area (Fold)” value (A875 shp75, 1uM, 24 h, n2) was 0.773 Fold and the “Wound area (Fold)” value (A875 shp75, 1uM, 24 h, n3) was 0.771 Fold. The “Wound area (Fold)” value (A875 shp75, 2uM, 0 h, Mean) was 1.000 Fold, the “Wound area (Fold)” value (A875 shp75, 2uM, 0 h, n1) was 1.055 Fold and the “Wound area (Fold)” value (A875 shp75, 2uM, 0 h, n2) was 0.891 Fold. The “Wound area (Fold)” value (A875 shp75, 2uM, 0 h, n3) was 1.054 Fold, the “Wound area (Fold)” value (A875 shp75, 2uM, 3 h, Mean) was 0.908 Fold and the “Wound area (Fold)” value (A875 shp75, 2uM, 3 h, n1) was 0.882 Fold. The “Wound area (Fold)” value (A875 shp75, 2uM, 3 h, n2) was 0.921 Fold, the “Wound area (Fold)” value (A875 shp75, 2uM, 3 h, n3) was 0.922 Fold and the “Wound area (Fold)” value (A875 shp75, 2uM, 6 h, Mean) was 0.857 Fold. For the same compound, the “Wound area (Fold)” value (A875 shp75, 2uM, 6 h, n1) was 0.826 Fold, the “Wound area (Fold)” value (A875 shp75, 2uM, 6 h, n2) was 0.869 Fold and the “Wound area (Fold)” value (A875 shp75, 2uM, 6 h, n3) was 0.877 Fold. The “Wound area (Fold)” value (A875 shp75, 2uM, 9 h, Mean) was 0.836 Fold, the “Wound area (Fold)” value (A875 shp75, 2uM, 9 h, n1) was 0.818 Fold and the “Wound area (Fold)” value (A875 shp75, 2uM, 9 h, n2) was 0.854 Fold. For the same compound, the “Wound area (Fold)” value (A875 shp75, 2uM, 9 h, n3) was 0.836 Fold, the “Wound area (Fold)” value (A875 shp75, 2uM, 12 h, Mean) was 0.798 Fold and the “Wound area (Fold)” value (A875 shp75, 2uM, 12 h, n1) was 0.793 Fold. The “Wound area (Fold)” value (A875 shp75, 2uM, 12 h, n2) was 0.807 Fold, the “Wound area (Fold)” value (A875 shp75, 2uM, 12 h, n3) was 0.794 Fold and the “Wound area (Fold)” value (A875 shp75, 2uM, 15 h, Mean) was 0.786 Fold. For the same compound, the “Wound area (Fold)” value (A875 shp75, 2uM, 15 h, n1) was 0.790 Fold, the “Wound area (Fold)” value (A875 shp75, 2uM, 15 h, n2) was 0.776 Fold and the “Wound area (Fold)” value (A875 shp75, 2uM, 15 h, n3) was 0.791 Fold. The “Wound area (Fold)” value (A875 shp75, 2uM, 18 h, Mean) was 0.750 Fold, the “Wound area (Fold)” value (A875 shp75, 2uM, 18 h, n1) was 0.749 Fold and the “Wound area (Fold)” value (A875 shp75, 2uM, 18 h, n2) was 0.742 Fold. For the same compound, the “Wound area (Fold)” value (A875 shp75, 2uM, 18 h, n3) was 0.760 Fold, the “Wound area (Fold)” value (A875 shp75, 2uM, 21 h, Mean) was 0.731 Fold and the “Wound area (Fold)” value (A875 shp75, 2uM, 21 h, n1) was 0.738 Fold. For the same compound, the “Wound area (Fold)” value (A875 shp75, 2uM, 21 h, n2) was 0.705 Fold, the “Wound area (Fold)” value (A875 shp75, 2uM, 21 h, n3) was 0.751 Fold and the “Wound area (Fold)” value (A875 shp75, 2uM, 24 h, Mean) was 0.700 Fold. The “Wound area (Fold)” value (A875 shp75, 2uM, 24 h, n1) was 0.699 Fold, the “Wound area (Fold)” value (A875 shp75, 2uM, 24 h, n2) was 0.661 Fold and the “Wound area (Fold)” value (A875 shp75, 2uM, 24 h, n3) was 0.739 Fold.
